Laboratory results as given in US11964953B2, “Substituted aminothiazoles as DGKzeta inhibitors for immune activation” (Bayer Aktiengesellschaft, priority 2020, dated 2024).

The molecules below were run against human DGKζ (Homo sapiens (Human), UniProt Q13574) (assay: Human DGKζ kinase activity inhibition assay (ADP-Glo)). Conditions: in vitro human DGKζ kinase activity inhibition assay; read-out: IC50.
Type: biochemical
Outline: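 Enzyme was C-terminally FLAG-tagged full-length recombinant human DGKζ from baculovirus-infected insect cells. Substrate preparation used octyl-β-D-glucopyranoside in 50 mM MOPS pH 7.4 with sonication; ADP generated was quantified by ADP-Glo luminescence as activity measure.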

Chain of human DGKζ (Q13574 other isoform, or with tags, fused parts or gaps): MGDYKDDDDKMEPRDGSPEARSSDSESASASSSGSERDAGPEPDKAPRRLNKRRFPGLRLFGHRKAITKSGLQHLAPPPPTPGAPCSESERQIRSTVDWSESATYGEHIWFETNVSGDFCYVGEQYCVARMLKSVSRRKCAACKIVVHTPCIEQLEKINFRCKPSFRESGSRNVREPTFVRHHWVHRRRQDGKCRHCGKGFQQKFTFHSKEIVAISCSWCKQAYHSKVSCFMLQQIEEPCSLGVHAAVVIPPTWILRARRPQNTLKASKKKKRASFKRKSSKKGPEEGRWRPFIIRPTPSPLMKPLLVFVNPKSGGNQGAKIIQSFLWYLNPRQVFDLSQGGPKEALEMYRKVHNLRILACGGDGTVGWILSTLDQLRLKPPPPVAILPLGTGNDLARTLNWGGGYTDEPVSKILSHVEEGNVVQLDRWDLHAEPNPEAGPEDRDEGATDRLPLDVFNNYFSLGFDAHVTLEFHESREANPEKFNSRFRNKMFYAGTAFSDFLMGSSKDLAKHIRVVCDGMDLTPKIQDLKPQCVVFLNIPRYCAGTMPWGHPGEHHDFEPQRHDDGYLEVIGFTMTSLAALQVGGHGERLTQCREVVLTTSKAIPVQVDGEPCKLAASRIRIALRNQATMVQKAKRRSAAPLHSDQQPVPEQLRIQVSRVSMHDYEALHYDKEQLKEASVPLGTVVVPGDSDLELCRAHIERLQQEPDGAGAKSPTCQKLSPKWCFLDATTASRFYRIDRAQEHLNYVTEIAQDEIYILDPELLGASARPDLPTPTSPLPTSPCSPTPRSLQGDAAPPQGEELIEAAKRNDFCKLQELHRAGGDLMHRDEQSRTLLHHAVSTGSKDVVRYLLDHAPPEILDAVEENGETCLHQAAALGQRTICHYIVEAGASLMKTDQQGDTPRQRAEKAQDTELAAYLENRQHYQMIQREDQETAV

SMILES | IC50
CC(C(N)=O)N(c1ccc(F)cc1)c1nc(N)c(C(=O)c2ccc(-n3ccnc3)cc2)s1 (racemic) [Example 20, rac-2-(N-[4-amino-5-(4-imidazol-1-ylbenzoyl)thiazol-2-yl]-4-fluoro-anilino)propanamide] | 161 nM
CC(C(N)=O)N(c1ccc(F)cc1)c1nc(N)c(C(=O)c2ccc(N3CC4CC4C3)nc2)s1 (racemic) [Example 282, rac-2-(N-[4-amino-5-[6-(3-azabicyclo[3.1.0]hexan-3-yl)pyridine-3-carbonyl]thiazol-2-yl]-4-fluoro-anilino)propanamide] | 53 nM
CC(C(N)=O)N(c1ccc(Cl)cc1)c1nc(N)c(C(=O)c2ccc(OC(F)F)cc2)s1 (single isomer, unassigned) [Example 47.2, 2-(N-[4-amino-5-[4-(difluoromethoxy)benzoyl]thiazol-2-yl]-4-chloro-anilino)propanamide] | 1.96 nM
CC(C(N)=O)N(c1ccc(F)c(F)c1)c1nc(N)c(C(=O)c2ccccc2)s1 (racemic) [Example 32, rac-2-(N-(4-amino-5-benzoyl-thiazol-2-yl)-3,4-difluoro-anilino)propanamide] | 38.7 nM
Cc1ccc(C(=O)c2sc(N(c3ccc(F)cc3)C(C)C(N)=O)nc2N)cc1 (single isomer, unassigned) [Example 63.2, 2-(N-[4-amino-5-(4-methylbenzoyl)thiazol-2-yl]-4-fluoro-anilino)propanamide] | 18.5 nM
CC(C(N)=O)N(c1ccc(OCc2ccccc2)cc1)c1nc(N)c(C(=O)c2ccccc2)s1 (racemic) [Example 199, rac-2-(N-(4-amino-5-benzoyl-thiazol-2-yl)-4-benzyloxy-anilino)propanamide] | 396 nM
CC(C(N)=O)N(c1nc(N)c(C(=O)c2ccccc2)s1)c1ccc(F)cc1F (racemic) [Example 65, rac-2-(N-(4-amino-5-benzoyl-thiazol-2-yl)-2,4-difluoro-anilino)propanamide] | 101 nM
COc1ccc(C(=O)c2sc(N(c3ccc(F)cc3)C(C)C(N)=O)nc2C)cc1 (single isomer, unassigned) [Example 176.2, 2-(4-fluoro-N-[5-(4-methoxybenzoyl)-4-methyl-thiazol-2-yl]anilino)propanamide] | 672 nM
CCOC(=O)COc1ccc(C(=O)c2sc(N(c3ccc(F)cc3)C(C)C(N)=O)nc2N)cc1 (single isomer, unassigned; enantiomer 1) [Example 81.1, ethyl 2-[4-[4-amino-2-(4-fluoro-N-[2-amino-1-methyl-2-oxo-ethyl]anilino)thiazole-5-carbonyl]phenoxy]acetate (enantiomer 1)] | 1020 nM
COc1cccc(CNC(=O)COc2ccc(C(=O)c3sc(N(c4ccc(F)cc4)C(C)C(N)=O)nc3N)cc2)c1 (racemic) [Example 95, rac-2-(N-(4-amino-5-[4-[2-[(3-methoxyphenyl)methylamino]-2-oxo-ethoxy]benzoyl]thiazol-2-yl]-4-fluoro-anilino)propanamide] | 39 nM
Cc1cccc(NC(=O)COc2ccc(C(=O)c3sc(N(c4ccc(F)cc4)C(C)C(N)=O)nc3N)cc2)c1 (racemic) [Example 87, rac-2-(N-[4-amino-5-[4-[2-(3-methylanilino)-2-oxo-ethoxy]benzoyl]thiazol-2-yl]-4-fluoro-anilino)propanamide] | 8.53 nM
CC(C(N)=O)N(c1ccc(F)cc1)c1nc(N)c(C(=O)c2cccc(OC(F)F)c2)s1 (racemic) [Example 183, rac-2-(N-[4-amino-5-[3-(difluoromethoxy)benzoyl]thiazol-2-yl]-4-fluoro-anilino)propanamide] | 222 nM
CC(C(N)=O)N(c1ccc(Cl)c(F)c1)c1nc(N)c(C(=O)c2ccncc2)s1 (single isomer, unassigned) [Example 56.1, 2-(N-[4-amino-5-(pyridine-4-carbonyl)thiazol-2-yl]-4-chloro-3-fluoro-anilino)propanamide] | 50.5 nM
CNC(=O)c1ccc(C(=O)c2sc(N(c3ccc(F)cc3)C(C)C(N)=O)nc2N)cc1 (racemic) [Example 15, rac-4-[4-amino-2-(N-[2-amino-1-methyl-2-oxo-ethyl]-4-fluoro-anilino)thiazole-5-carbonyl]-N-methyl-benzamide] | 266 nM
CC(C(N)=O)N(c1ccc(F)cc1)c1nc(N)c(C(=O)c2ccc(N3CCOCC3)cc2)s1 (racemic) [Example 178, rac-2-(N-[4-amino-5-(4-morpholinobenzoyl)thiazol-2-yl]-4-fluoro-anilino)propanamide] | 48 nM
Cc1cc(C(=O)c2sc(N(c3ccc(F)cc3)C(C)C(N)=O)nc2N)ccn1 (single isomer, unassigned) [Example 187.2, 2-(N-[4-amino-5-(2-methylpyridine-4-carbonyl)thiazol-2-yl]-4-fluoro-anilino)propanamide] | > 20000 nM
CC(C(N)=O)N(c1ccc(Cl)c(F)c1)c1nc(N)c(C(=O)c2ccc(OC(F)F)cc2)s1 (single isomer, unassigned) [Example 48.2, 2-(N-[4-amino-5-[4-(difluoromethoxy)benzoyl]thiazol-2-yl]-4-chloro-3-fluoro-anilino)propanamide] | 120 nM
CC(C(N)=O)N(c1ccc(OC(F)(F)F)cc1)c1nc(N)c(C(=O)c2ccc(F)cc2)s1 (single isomer, unassigned) [Example 27.2, 2-[N-(4-amino-5-(4-fluorobenzoyl)thiazol-2-yl]-4-(trifluoromethoxy)anilino]propanamide] | 43.6 nM
CC(C(N)=O)N(c1ccc(Cl)c(F)c1)c1nc(N)c(C(=O)c2ccc(OC(F)F)nc2)s1 (single isomer, unassigned) [Example 164.1, 2-(N-[4-amino-5-[6-(difluoromethoxy)pyridine-3-carbonyl]thiazol-2-yl]-4-chloro-3-fluoro-anilino)propanamide] | 5 nM
CC(C(N)=O)N(c1ccc(F)c(OC(F)(F)F)c1)c1nc(N)c(C(=O)c2ccccc2)s1 (racemic) [Example 235, rac-2-[N-(4-amino-5-benzoyl-thiazol-2-yl)-4-fluoro-3-(trifluoromethoxy)anilino]propanamide] | 542 nM
COc1ccc(C(=O)c2sc(N(c3ccc(Cl)c(F)c3)C(C)C(N)=O)nc2N)cc1 (single isomer, unassigned) [Example 59.2, 2-(N-[4-amino-5-(4-methoxybenzoyl)thiazol-2-yl]-4-chloro-3-fluoro-anilino)propanamide] | 424 nM
CC(C(N)=O)N(c1ccc(F)cc1)c1nc(N)c(C(=O)c2ccc(OCc3ccccc3)cc2)s1 (single isomer, unassigned) [Example 170.1, 2-(N-[4-amino-5-(4-benzyloxybenzoyl)thiazol-2-yl]-4-fluoro-anilino)propanamide] | 5 nM
CC(C(N)=O)N(c1ccc(Cl)c(F)c1)c1nc(N)c(C(=O)c2ccc(OC(F)F)cc2)s1 (single isomer, unassigned) [Example 48.1, 2-(N-[4-amino-5-[4-(difluoromethoxy)benzoyl]thiazol-2-yl]-4-chloro-3-fluoro-anilino)propanamide] | 1.76 nM
CC1CC(C)CN(c2ccc(C(=O)c3sc(N(c4ccc(F)cc4)C(C)C(N)=O)nc3N)cn2)C1 (racemic) [Example 281, rac-2-(N-[4-amino-5-[6-(3,5-dimethyl-1-piperidyl)pyridine-3-carbonyl]thiazol-2-yl]-4-fluoro-anilino)propanamide] | 98 nM
